From patent publication US10253039B2, “Inhibitors of bacterial DNA gyrase with efficacy against gram-negative bacteria” (priority 2014, dated 2019)
Values after ≈ are worked out from the molar mass of the structure shown.

Columns and labels:
Type in all cases: cell-based
E. coli BW25113 = experiment: MIC, microdilution in 96-well plates; conditions: Escherichia coli, BW25113, E. coli BW25113; read-out: MIC
In short: (§1)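 After 16-18 h shaking incubation at 37 °C, MIC was read visually as the lowest concentration without turbidity. Compounds were 2-fold serially diluted in LB medium seeded with a 1:10000 inoculum, following the CLSI microdilution protocol.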

Edwardsiella tarda = experiment: MIC, microdilution in 96-well plates
In short: as §1

E. coli JW5503 (deltolC) = experiment: MIC, 20-strain panel; conditions: Escherichia coli, E. coli JW5503 (deltolC)
In short: as §1

E. coli MG1655 = experiment: MIC, 20-strain panel; conditions: Escherichia coli, MG1655, E. coli MG1655; read-out: MIC
In short: as §1

[1] = test system: Klebsiella pneumoniae subsp. pneumoniae; experiment: MIC, 20-strain panel; conditions: Klebsiella pneumoniae subsp. pneumoniae
In short: as §1

[2] = test system: Salmonella enterica subsp. enterica typhimurium; experiment: MIC, 20-strain panel; conditions: Salmonella enterica subsp. enterica Typhimurium
In short: as §1

Shigella flexneri = experiment: MIC, 20-strain panel
In short: as §1

[3] = test system: Staphylococcus aureus subsp. aureus; experiment: MIC, 20-strain panel; conditions: Staphylococcus aureus subsp. aureus, read-out: MIC
In short: as §1

[4] = test system: Staphylococcus epidermidis; experiment: MIC, 20-strain panel
In short: as §1

[5] = test system: Staphylococcus saprophyticus subsp. saprophyticus; experiment: MIC, 20-strain panel
In short: as §1

Streptococcus agalactiae = experiment: MIC, 20-strain panel
In short: as §1

Streptococcus pyogenes = experiment: MIC, 20-strain panel
In short: as §1

## O=S(=O)(N[C@@H]1CCN(Cc2cn(-c3ccccc3)nn2)C1)c1cccc(OC(F)(F)F)c1 [Compound 129]
E. coli BW25113
  MIC: > 8 µg/mL
Edwardsiella tarda
  MIC: > 8 µg/mL
E. coli JW5503 (deltolC)
  MIC: > 8 µg/mL
E. coli MG1655
  MIC: > 8 µg/mL
[1]
  MIC: > 8 µg/mL
[2]
  MIC: > 8 µg/mL
Shigella flexneri
  MIC: > 8 µg/mL
[3]
  MIC: > 8 µg/mL
[4]
  MIC: > 8 µg/mL
[5]
  MIC: > 8 µg/mL
Streptococcus agalactiae
  MIC: > 8 µg/mL
Streptococcus pyogenes
  MIC: > 8 µg/mL

## O=S(=O)(N[C@@H]1CCN(Cc2ccc(OC3CC3)cc2)C1)c1ncc[nH]1 [Compound 130]
E. coli BW25113
  MIC: > 8 µg/mL
Edwardsiella tarda
  MIC: > 8 µg/mL
E. coli JW5503 (deltolC)
  MIC: ~8 µg/mL (≈ 22.1 µM)
E. coli MG1655
  MIC: > 8 µg/mL
[1]
  MIC: > 8 µg/mL
[2]
  MIC: ~8 µg/mL (≈ 22.1 µM)
Shigella flexneri
  MIC: > 8 µg/mL
[3]
  MIC: > 8 µg/mL
[4]
  MIC: > 8 µg/mL
[5]
  MIC: > 8 µg/mL
Streptococcus agalactiae
  MIC: > 8 µg/mL
Streptococcus pyogenes
  MIC: > 8 µg/mL

## Cc1ccc(S(=O)(=O)N[C@@H]2CCN(Cc3ccc(-c4ccccc4)cc3)C2)cc1C#N [Compound 131]
E. coli BW25113
  MIC: > 8 µg/mL
Edwardsiella tarda
  MIC: > 8 µg/mL
E. coli JW5503 (deltolC)
  MIC: 8 µg/mL (≈ 18.5 µM)
E. coli MG1655
  MIC: > 8 µg/mL
[1]
  MIC: > 8 µg/mL
[2]
  MIC: > 8 µg/mL
Shigella flexneri
  MIC: > 8 µg/mL
[3]
  MIC: > 8 µg/mL
[4]
  MIC: > 8 µg/mL
[5]
  MIC: > 8 µg/mL
Streptococcus agalactiae
  MIC: > 8 µg/mL
Streptococcus pyogenes
  MIC: > 8 µg/mL

## O=S(=O)(N[C@@H]1CCN(Cc2ccc(OC3CC3)cc2)C1)c1ccc(Cl)cn1 [Compound 132]
E. coli BW25113
  MIC: > 8 µg/mL
Edwardsiella tarda
  MIC: > 8 µg/mL
E. coli JW5503 (deltolC)
  MIC: > 8 µg/mL
E. coli MG1655
  MIC: > 8 µg/mL
[1]
  MIC: > 8 µg/mL
[2]
  MIC: > 8 µg/mL
Shigella flexneri
  MIC: > 8 µg/mL
[3]
  MIC: > 8 µg/mL
[4]
  MIC: > 8 µg/mL
[5]
  MIC: > 8 µg/mL
Streptococcus agalactiae
  MIC: > 8 µg/mL
Streptococcus pyogenes
  MIC: > 8 µg/mL

## CC(=O)c1cc(S(=O)(=O)N[C@@H]2CCN(Cc3ccc(OC4CC4)cc3)C2)ccc1C [Compound 133]
E. coli BW25113
  MIC: > 8 µg/mL
Edwardsiella tarda
  MIC: > 8 µg/mL
E. coli JW5503 (deltolC)
  MIC: > 8 µg/mL
E. coli MG1655
  MIC: > 8 µg/mL
[1]
  MIC: > 8 µg/mL
[2]
  MIC: > 8 µg/mL
Shigella flexneri
  MIC: > 8 µg/mL
[3]
  MIC: > 8 µg/mL
[4]
  MIC: > 8 µg/mL
[5]
  MIC: > 8 µg/mL
Streptococcus agalactiae
  MIC: > 8 µg/mL
Streptococcus pyogenes
  MIC: > 8 µg/mL

## CC(=O)c1cccc(S(=O)(=O)N[C@@H]2CCN(Cc3ccc(OC4CC4)cc3)C2)c1 [Compound 134]
E. coli BW25113
  MIC: > 8 µg/mL
Edwardsiella tarda
  MIC: > 8 µg/mL
E. coli JW5503 (deltolC)
  MIC: 4 µg/mL (≈ 9.65 µM)
E. coli MG1655
  MIC: > 8 µg/mL
[1]
  MIC: > 8 µg/mL
[2]
  MIC: ~8 µg/mL (≈ 19.3 µM)
Shigella flexneri
  MIC: > 8 µg/mL
[3]
  MIC: > 8 µg/mL
[4]
  MIC: > 8 µg/mL
[5]
  MIC: > 8 µg/mL
Streptococcus agalactiae
  MIC: > 8 µg/mL
Streptococcus pyogenes
  MIC: > 8 µg/mL

## CC(C)Oc1ccc(CN2CC[C@@H](NS(=O)(=O)c3cc(C(F)(F)F)cc(C(F)(F)F)c3)C2)cc1 [Compound 135]
E. coli BW25113
  MIC: > 8 µg/mL
Edwardsiella tarda
  MIC: > 8 µg/mL
E. coli JW5503 (deltolC)
  MIC: 8 µg/mL (≈ 15.7 µM)
E. coli MG1655
  MIC: > 8 µg/mL
[1]
  MIC: > 8 µg/mL
[2]
  MIC: > 8 µg/mL
Shigella flexneri
  MIC: > 8 µg/mL
[3]
  MIC: > 8 µg/mL
[4]
  MIC: > 8 µg/mL
[5]
  MIC: > 8 µg/mL
Streptococcus agalactiae
  MIC: > 8 µg/mL
Streptococcus pyogenes
  MIC: > 8 µg/mL

## CC(C)Oc1ccc(CN2CC[C@@H](NS(=O)(=O)c3ncc[nH]3)C2)cc1 [Compound 136]
E. coli BW25113
  MIC: > 8 µg/mL
Edwardsiella tarda
  MIC: > 8 µg/mL
E. coli JW5503 (deltolC)
  MIC: ~8 µg/mL (≈ 21.9 µM)
E. coli MG1655
  MIC: > 8 µg/mL
[1]
  MIC: > 8 µg/mL
[2]
  MIC: > 8 µg/mL
Shigella flexneri
  MIC: > 8 µg/mL
[3]
  MIC: > 8 µg/mL
[4]
  MIC: > 8 µg/mL
[5]
  MIC: > 8 µg/mL
Streptococcus agalactiae
  MIC: > 8 µg/mL
Streptococcus pyogenes
  MIC: > 8 µg/mL

## Cc1ccncc1S(=O)(=O)N[C@@H]1CCN(Cc2ccc(-c3ccccc3)cc2)C1 [Compound 137]
E. coli BW25113
  MIC: > 8 µg/mL
Edwardsiella tarda
  MIC: > 8 µg/mL
E. coli JW5503 (deltolC)
  MIC: 2 µg/mL (≈ 4.91 µM)
E. coli MG1655
  MIC: > 8 µg/mL
[1]
  MIC: > 8 µg/mL
[2]
  MIC: > 8 µg/mL
Shigella flexneri
  MIC: > 8 µg/mL
[3]
  MIC: > 8 µg/mL
[4]
  MIC: > 8 µg/mL
[5]
  MIC: > 8 µg/mL
Streptococcus agalactiae
  MIC: > 8 µg/mL
Streptococcus pyogenes
  MIC: > 8 µg/mL

## CC(C)Oc1ccc(CN2CC[C@@H](NS(=O)(=O)c3ccc(C#N)nc3)C2)cc1 [Compound 138]
E. coli BW25113
  MIC: > 8 µg/mL
Edwardsiella tarda
  MIC: > 8 µg/mL
E. coli JW5503 (deltolC)
  MIC: > 8 µg/mL
E. coli MG1655
  MIC: > 8 µg/mL
[1]
  MIC: > 8 µg/mL
[2]
  MIC: > 8 µg/mL
Shigella flexneri
  MIC: > 8 µg/mL
[3]
  MIC: > 8 µg/mL
[4]
  MIC: > 8 µg/mL
[5]
  MIC: > 8 µg/mL
Streptococcus agalactiae
  MIC: > 8 µg/mL
Streptococcus pyogenes
  MIC: > 8 µg/mL

## Cc1ccc(S(=O)(=O)N[C@@H]2CCN(Cc3ccc(OC(C)C)cc3)C2)cn1 [Compound 139]
E. coli BW25113
  MIC: > 8 µg/mL
Edwardsiella tarda
  MIC: > 8 µg/mL
E. coli JW5503 (deltolC)
  MIC: > 8 µg/mL
E. coli MG1655
  MIC: > 8 µg/mL
[1]
  MIC: > 8 µg/mL
[2]
  MIC: > 8 µg/mL
Shigella flexneri
  MIC: > 8 µg/mL
[3]
  MIC: > 8 µg/mL
[4]
  MIC: > 8 µg/mL
[5]
  MIC: > 8 µg/mL
Streptococcus agalactiae
  MIC: > 8 µg/mL
Streptococcus pyogenes
  MIC: > 8 µg/mL
